Laboratory results as given in ChEMBL document CHEMBL4715821, “Discovery of 4-ethoxy-7H-pyrrolo[2,3-d]pyrimidin-2-amines as potent, selective and orally bioavailable LRRK2 inhibitors” (Bioorg Med Chem Lett, 2018).

How the values were obtained:
[1] = molecular target: Serine/threonine-protein kinase pim-2 (Homo sapiens) (UniProt Q9P1W9); assay: Inhibition of wild-type human partial length PIM2 (M1 to E291 residues) expressed in bacterial expression system assessed as residual activity at 1 uM by Kinomescan method relative to control
[2] = molecular target: Interleukin-1 receptor-associated kinase 1 (Homo sapiens) (UniProt P51617); assay: Inhibition of wild-type human partial length IRAK1 (R194 to S712 residues) expressed in mammalian expression system assessed as residual activity at 1 uM by Kinomescan method relative to control
[3] = molecular target: Testis-specific serine/threonine-protein kinase 3 (Homo sapiens) (UniProt Q96PN8); assay: Inhibition of wild-type human full length TSSK3 (M1 to T268 residues) expressed in mammalian expression system assessed as residual activity at 1 uM by Kinomescan method relative to control
[4] = molecular target: Tyrosine-protein kinase Srms (Homo sapiens) (UniProt Q9H3Y6); assay: Inhibition of wild-type human partial length SRMS (L208 to P488 residues) expressed in mammalian expression system assessed as residual activity at 1 uM by Kinomescan method relative to control
[5] = Metabolic stability in human liver microsomes assessed as intrinsic clearance; format: ADME, Microsome
[6] = molecular target: LIM domain kinase 2 (Homo sapiens) (UniProt P53671); assay: Inhibition of wild-type human full length LIMK2 (M1 to P638 residues) expressed in bacterial expression system assessed as residual activity at 1 uM by Kinomescan method relative to control
[7] = molecular target: Serine/threonine-protein kinase LATS1 (Homo sapiens) (UniProt O95835); assay: Inhibition of wild-type human partial length LATS1 (Q678 to V1130 residues) expressed in bacterial expression system assessed as residual activity at 1 uM by Kinomescan method relative to control
[8] = molecular target: Leucine-rich repeat serine/threonine-protein kinase 2 (Homo sapiens, UniProt Q5S007); assay: Inhibition of LRRK2 in human AHE cells assessed as reduction in Ser935 phosphorylation; format: cell-based, Lymphoblastoid cell
[9] = molecular target: Calcium/calmodulin-dependent protein kinase type 1G (Homo sapiens) (UniProt Q96NX5); assay: Inhibition of wild-type human partial length CAMK1G (M1 to A342 residues) expressed in bacterial expression system assessed as residual activity at 1 uM by Kinomescan method relative to control
[10] = molecular target: 3-phosphoinositide-dependent protein kinase 1 (Homo sapiens) (UniProt O15530); assay: Inhibition of PDK1 (unknown origin) assessed as residual activity at 1 uM by Kinomescan method relative to control
[11] = molecular target: Calcium/calmodulin-dependent protein kinase type 1 (Homo sapiens) (UniProt Q14012); assay: Inhibition of wild-type human full length CAMK1A (M1 to L370 residues) expressed in bacterial expression system assessed as residual activity at 1 uM by Kinomescan method relative to control
[12] = molecular target: Cyclin-dependent kinase 2/cyclin E1 (Homo sapiens) (UniProt P24864+P24941); assay: Inhibition of wild-type human full length CDK2 (M1 to L298 residues)/Cyclin E expressed in bacterial expression system assessed as residual activity at 1 uM by Kinomescan method relative to control
[13] = molecular target: Calcium/calmodulin-dependent protein kinase type II subunit delta (Homo sapiens) (UniProt Q13557); assay: Inhibition of wild-type human partial length CAMK2D (M1 to E329 residues) expressed in bacterial expression system assessed as residual activity at 1 uM by Kinomescan method relative to control
[14] = molecular target: NUAK family SNF1-like kinase 2 (Homo sapiens) (UniProt Q9H093); assay: Inhibition of wild-type human partial length SNARK (P22 to A333 residues) expressed in mammalian expression system assessed as residual activity at 1 uM by Kinomescan method relative to control
[15] = molecular target: Dual specificity mitogen-activated protein kinase kinase 3 (Homo sapiens) (UniProt P46734); assay: Inhibition of wild-type human full length MEK3 (M1 to S318 residues) expressed in mammalian expression system assessed as residual activity at 1 uM by Kinomescan method relative to control
[16] = molecular target: Casein kinase I isoform epsilon (Homo sapiens) (UniProt P49674); assay: Inhibition of CK1epsilon (unknown origin) assessed as residual activity at 1 uM by Kinomescan method relative to control
[17] = molecular target: Dual serine/threonine and tyrosine protein kinase (Homo sapiens) (UniProt Q6XUX3); assay: Inhibition of wild-type human full length RIPK5 (M1 to T929 residues) expressed in mammalian expression system assessed as residual activity at 1 uM by Kinomescan method relative to control
[18] = molecular target: Lymphokine-activated killer T-cell-originated protein kinase (Homo sapiens) (UniProt Q96KB5); assay: Inhibition of PBK (unknown origin) assessed as residual activity at 1 uM by Kinomescan method relative to control
[19] = molecular target: cGMP-dependent protein kinase 1 (Homo sapiens) (UniProt Q13976); assay: Inhibition of PKG1beta (unknown origin) assessed as residual activity at 1 uM by Kinomescan method relative to control
[20] = molecular target: Serine/threonine-protein kinase ICK (Homo sapiens) (UniProt Q9UPZ9); assay: Inhibition of wild-type human partial length ICK (M1 to P314 residues) expressed in mammalian expression system assessed as residual activity at 1 uM by Kinomescan method relative to control
[21] = molecular target: Serine/threonine-protein kinase TAO1 (Homo sapiens) (UniProt Q7L7X3); assay: Inhibition of wild-type human partial length TAOK1 (M1 to A320 residues) expressed in mammalian expression system assessed as residual activity at 1 uM by Kinomescan method relative to control
[22] = molecular target: Mitogen-activated protein kinase kinase kinase 9 (Homo sapiens) (UniProt P80192); assay: Inhibition of wild-type human partial length MLK1 (V88 to W426 residues) expressed in bacterial expression system assessed as residual activity at 1 uM by Kinomescan method relative to control
[23] = molecular target: cAMP-dependent protein kinase catalytic subunit gamma (Homo sapiens) (UniProt P22612); assay: Inhibition of PKAcg (unknown origin) assessed as residual activity at 1 uM by Kinomescan method relative to control
[24] = molecular target: cGMP-dependent protein kinase 1 (Homo sapiens) (UniProt Q13976); assay: Inhibition of PKG1a (unknown origin) assessed as residual activity at 1 uM by Kinomescan method relative to control
[25] = molecular target: Mitogen-activated protein kinase kinase kinase 1 (Homo sapiens) (UniProt Q13233); assay: Inhibition of MEKK1 (unknown origin) assessed as residual activity at 1 uM by Kinomescan method relative to control
[26] = Artificial membrane permeability by PAMPA method; format: ADME; conditions: read-out: permeability
[27] = molecular target: Serine/threonine-protein kinase MARK1 (Homo sapiens) (UniProt Q9P0L2); assay: Inhibition of wild-type human partial length MARK1 (Q30 to T341 residues) expressed in bacterial expression system assessed as residual activity at 1 uM by Kinomescan method relative to control
[28] = molecular target: Serine/threonine-protein kinase VRK2 (Homo sapiens) (UniProt Q86Y07); assay: Inhibition of wild-type human partial length VRK2 (M1 to T336 residues) expressed in mammalian expression system assessed as residual activity at 1 uM by Kinomescan method relative to control
Sequence of Serine/threonine-protein kinase VRK2 (Homo sapiens) (Q86Y07 whole entry, the tested form may be a part): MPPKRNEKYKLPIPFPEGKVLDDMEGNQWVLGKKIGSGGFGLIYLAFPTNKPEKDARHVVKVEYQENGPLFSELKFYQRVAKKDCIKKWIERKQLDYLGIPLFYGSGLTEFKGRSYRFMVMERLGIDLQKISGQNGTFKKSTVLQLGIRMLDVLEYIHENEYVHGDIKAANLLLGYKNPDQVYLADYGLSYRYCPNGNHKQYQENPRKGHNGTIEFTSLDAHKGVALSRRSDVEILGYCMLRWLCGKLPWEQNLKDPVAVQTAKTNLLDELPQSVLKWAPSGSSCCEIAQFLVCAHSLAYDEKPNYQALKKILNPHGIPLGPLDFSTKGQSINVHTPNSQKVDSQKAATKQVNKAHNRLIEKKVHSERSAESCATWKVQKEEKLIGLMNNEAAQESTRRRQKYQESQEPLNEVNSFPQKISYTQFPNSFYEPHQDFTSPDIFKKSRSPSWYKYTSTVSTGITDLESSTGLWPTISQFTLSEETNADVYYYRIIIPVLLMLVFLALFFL

Sequence of cGMP-dependent protein kinase 1 (Homo sapiens) (Q13976 whole entry, the tested form may be a part): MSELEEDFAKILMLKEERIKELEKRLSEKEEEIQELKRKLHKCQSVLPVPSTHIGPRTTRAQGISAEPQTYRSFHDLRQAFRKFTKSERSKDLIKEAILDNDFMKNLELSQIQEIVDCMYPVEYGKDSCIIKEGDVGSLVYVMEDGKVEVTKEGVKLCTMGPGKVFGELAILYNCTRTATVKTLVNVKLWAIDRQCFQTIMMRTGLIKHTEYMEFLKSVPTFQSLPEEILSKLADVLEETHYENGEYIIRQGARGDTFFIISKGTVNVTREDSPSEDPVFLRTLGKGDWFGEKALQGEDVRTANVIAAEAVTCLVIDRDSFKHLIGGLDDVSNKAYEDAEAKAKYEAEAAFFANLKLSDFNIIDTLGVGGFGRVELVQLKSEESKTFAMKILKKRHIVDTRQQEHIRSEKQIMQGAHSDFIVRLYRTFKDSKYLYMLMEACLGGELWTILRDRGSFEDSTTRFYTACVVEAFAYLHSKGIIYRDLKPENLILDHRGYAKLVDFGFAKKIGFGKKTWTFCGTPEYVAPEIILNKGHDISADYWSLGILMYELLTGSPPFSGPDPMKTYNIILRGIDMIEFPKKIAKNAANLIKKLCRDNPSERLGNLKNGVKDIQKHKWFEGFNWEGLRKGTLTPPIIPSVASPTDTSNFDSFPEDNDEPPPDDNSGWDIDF
Sequence of Serine/threonine-protein kinase MARK1 (Homo sapiens) (Q9P0L2 whole entry, looked up, the tested form may be a part): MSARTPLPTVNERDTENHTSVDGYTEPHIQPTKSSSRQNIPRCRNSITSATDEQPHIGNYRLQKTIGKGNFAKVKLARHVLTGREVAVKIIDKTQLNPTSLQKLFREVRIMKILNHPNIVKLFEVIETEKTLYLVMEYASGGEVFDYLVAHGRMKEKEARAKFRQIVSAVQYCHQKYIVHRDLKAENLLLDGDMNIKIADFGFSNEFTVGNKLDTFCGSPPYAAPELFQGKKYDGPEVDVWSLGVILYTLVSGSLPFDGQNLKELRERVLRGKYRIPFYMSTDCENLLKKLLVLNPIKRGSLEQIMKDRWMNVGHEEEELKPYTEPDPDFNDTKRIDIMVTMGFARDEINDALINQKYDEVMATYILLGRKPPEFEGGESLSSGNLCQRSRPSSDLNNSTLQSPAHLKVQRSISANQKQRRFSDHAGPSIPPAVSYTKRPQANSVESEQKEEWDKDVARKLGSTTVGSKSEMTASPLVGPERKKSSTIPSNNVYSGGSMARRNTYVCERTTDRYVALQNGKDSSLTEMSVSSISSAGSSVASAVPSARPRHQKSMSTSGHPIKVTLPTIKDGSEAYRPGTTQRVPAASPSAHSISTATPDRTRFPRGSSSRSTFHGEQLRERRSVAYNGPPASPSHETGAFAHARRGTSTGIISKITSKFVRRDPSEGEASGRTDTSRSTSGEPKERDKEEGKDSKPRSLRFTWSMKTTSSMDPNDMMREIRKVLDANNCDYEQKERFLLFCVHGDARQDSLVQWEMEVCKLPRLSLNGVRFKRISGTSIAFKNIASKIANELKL
Sequence of Leucine-rich repeat serine/threonine-protein kinase 2 (Q5S007 whole entry, the tested form may be a part): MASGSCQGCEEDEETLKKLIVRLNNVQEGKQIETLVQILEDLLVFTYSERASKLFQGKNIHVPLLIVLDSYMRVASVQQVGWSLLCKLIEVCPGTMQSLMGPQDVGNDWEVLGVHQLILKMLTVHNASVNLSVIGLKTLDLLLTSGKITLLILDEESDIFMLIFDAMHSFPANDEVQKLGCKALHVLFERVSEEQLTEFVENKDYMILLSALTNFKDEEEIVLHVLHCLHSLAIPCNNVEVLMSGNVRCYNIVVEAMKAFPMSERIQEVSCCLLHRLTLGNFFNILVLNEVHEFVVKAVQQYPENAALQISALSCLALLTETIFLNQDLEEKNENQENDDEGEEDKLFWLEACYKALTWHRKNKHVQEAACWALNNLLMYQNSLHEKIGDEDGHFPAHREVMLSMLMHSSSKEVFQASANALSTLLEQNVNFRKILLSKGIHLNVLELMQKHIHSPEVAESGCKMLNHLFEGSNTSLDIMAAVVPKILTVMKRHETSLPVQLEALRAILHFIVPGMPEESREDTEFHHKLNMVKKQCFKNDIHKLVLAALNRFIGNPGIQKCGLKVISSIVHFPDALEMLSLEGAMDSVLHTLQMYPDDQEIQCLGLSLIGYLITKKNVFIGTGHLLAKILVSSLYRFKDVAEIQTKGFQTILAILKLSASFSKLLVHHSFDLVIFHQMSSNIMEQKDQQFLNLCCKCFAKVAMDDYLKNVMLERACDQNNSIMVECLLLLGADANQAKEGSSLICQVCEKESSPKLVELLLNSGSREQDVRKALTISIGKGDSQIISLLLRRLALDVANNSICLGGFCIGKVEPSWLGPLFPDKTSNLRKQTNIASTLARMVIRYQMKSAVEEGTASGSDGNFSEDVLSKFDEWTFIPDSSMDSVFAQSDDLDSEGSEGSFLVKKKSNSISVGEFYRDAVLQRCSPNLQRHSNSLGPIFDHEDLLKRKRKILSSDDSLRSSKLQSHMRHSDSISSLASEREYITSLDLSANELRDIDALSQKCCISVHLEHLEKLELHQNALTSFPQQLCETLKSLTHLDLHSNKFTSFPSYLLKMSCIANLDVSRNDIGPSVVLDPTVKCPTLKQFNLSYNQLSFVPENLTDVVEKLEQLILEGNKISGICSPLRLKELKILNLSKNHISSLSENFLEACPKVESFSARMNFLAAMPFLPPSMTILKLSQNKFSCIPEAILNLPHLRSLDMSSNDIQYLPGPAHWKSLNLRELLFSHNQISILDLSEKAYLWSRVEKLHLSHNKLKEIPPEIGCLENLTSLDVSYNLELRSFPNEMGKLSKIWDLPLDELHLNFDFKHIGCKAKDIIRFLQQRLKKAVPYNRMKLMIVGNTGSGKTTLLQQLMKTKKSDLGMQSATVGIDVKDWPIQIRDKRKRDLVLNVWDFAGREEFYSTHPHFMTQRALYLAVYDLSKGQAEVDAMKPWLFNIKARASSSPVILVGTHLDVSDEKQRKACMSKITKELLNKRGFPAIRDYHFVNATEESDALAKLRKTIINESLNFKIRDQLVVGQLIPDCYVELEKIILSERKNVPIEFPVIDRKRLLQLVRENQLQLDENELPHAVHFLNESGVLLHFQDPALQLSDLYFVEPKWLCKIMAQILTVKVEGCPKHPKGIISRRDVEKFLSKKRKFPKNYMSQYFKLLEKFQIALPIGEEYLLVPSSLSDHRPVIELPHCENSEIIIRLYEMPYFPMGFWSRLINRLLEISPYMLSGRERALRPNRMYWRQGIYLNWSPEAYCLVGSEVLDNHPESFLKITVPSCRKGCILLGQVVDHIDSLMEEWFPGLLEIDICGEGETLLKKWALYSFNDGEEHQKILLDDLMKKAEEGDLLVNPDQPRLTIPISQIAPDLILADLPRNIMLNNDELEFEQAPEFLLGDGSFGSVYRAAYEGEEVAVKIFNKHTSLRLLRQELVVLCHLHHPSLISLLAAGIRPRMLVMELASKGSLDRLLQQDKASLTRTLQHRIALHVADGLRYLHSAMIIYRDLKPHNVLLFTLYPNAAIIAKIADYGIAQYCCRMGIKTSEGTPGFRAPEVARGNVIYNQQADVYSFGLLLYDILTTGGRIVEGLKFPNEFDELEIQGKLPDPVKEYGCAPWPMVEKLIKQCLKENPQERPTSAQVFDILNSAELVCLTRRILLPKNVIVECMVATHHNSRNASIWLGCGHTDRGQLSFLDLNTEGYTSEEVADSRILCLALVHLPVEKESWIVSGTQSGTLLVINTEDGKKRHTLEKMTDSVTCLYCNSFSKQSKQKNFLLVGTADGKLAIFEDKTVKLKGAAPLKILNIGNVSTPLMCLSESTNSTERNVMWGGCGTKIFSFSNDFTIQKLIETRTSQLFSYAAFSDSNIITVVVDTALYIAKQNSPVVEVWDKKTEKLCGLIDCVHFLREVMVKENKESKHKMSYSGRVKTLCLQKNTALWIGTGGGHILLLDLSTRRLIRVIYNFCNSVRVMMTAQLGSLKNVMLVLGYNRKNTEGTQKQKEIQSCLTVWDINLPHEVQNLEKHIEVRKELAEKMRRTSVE
Sequence of 3-phosphoinositide-dependent protein kinase 1 (Homo sapiens) (O15530 whole entry, looked up, the tested form may be a part): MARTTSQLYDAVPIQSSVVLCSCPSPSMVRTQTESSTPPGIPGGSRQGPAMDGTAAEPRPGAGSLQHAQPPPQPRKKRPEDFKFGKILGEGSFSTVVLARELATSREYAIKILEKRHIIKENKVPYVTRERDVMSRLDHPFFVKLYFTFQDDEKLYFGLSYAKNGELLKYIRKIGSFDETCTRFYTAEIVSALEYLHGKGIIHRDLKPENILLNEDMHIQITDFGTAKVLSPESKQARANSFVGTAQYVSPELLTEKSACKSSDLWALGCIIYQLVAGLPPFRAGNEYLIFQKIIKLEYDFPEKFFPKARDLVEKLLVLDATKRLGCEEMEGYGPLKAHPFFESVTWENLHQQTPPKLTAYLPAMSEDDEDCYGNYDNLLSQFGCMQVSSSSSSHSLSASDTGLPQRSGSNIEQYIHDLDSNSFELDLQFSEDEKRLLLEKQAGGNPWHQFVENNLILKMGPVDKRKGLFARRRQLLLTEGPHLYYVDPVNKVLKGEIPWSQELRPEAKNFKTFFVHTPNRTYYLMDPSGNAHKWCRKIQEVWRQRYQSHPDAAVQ

Question: What does the source list for `CCOc1nc(Nc2ccc(C(=O)N3CCOCC3)cc2OC)nc2[nH]ccc12`?
Answer: Activity [1]: 94.7%; Activity [2]: 105%; Activity [3]: 116%; Activity [4]: 108%; CLH [5]: 1.1 mL/min/g; Activity [6]: 106%; Activity [7]: 101%; IC50 [8]: 0.0316 µM; Activity [9]: 106%; Activity [10]: 93.1%; Activity [11]: 85.9%; Activity [12]: 92.1%; Activity [13]: 86.3%; Activity [14]: 98.5%; Activity [15]: 134%; Activity [16]: 69.6%; Activity [17]: 111%; Activity [18]: 101%; Activity [19]: 90.3%; Activity [20]: 104%; Activity [21]: 89.9%; Activity [22]: 83.9%; Activity [23]: 110%; Activity [24]: 92.5%; Activity [25]: 99%; Papp [26]: 480 nm/s; Activity [27]: 98.5%; Activity [28]: 102%
